Article PMC9943626, “CS27109, A Selective Thyroid Hormone Receptor-β Agonist Alleviates Metabolic-Associated Fatty Liver Disease in Murine Models” (International Journal of Endocrinology, 2023)
Where two headings read alike, the source gives them in different places.

What was measured:
PK in the mouse = format: in vivo, C57/B6 mouse
Description: Blood was collected for each mouse 0.5, 1, 2, 3, 4, 6, 8, 24, and 30 hours (H) after compound administration. Then, the serum was isolated and an extractant (containing 200 ng/ml methanol) was added to the serum. Samples were assessed by liquid chromatography-tandem mass spectrometry (LC-MS/MS) according to the standard procedure.

WD + CCL4 mouse model = test: WD + CCL4 mouse model, biochemical, liver weight ratio and liver pathology; format: in vivo, C57/B6 mouse; details: for LDL-c / TG / HDL-c / TC / CK activity / AST / ALT: WD + CCL4 mouse serum; for LDL-c / TG / HDL-c / TC / CK activity / AST / ALT / L/B (liver/body weight ratio): mean ± SD; for LDL-c: model 1.1 ± 0.35, normal 0.43 ± 0.04; for TG: model 1.2 ± 0.34, normal 0.91 ± 0.14; for HDL-c: model 1.5 ± 0.25, normal 2.0 ± 0.08; for TC: model 4.1 ± 0.97, normal 3.0 ± 0.10; for CK activity: model 345 ± 268, normal 334 ± 193; for AST: model 10245 ± 4955, normal 116 ± 71; for ALT: model 14003 ± 4205, normal 54 ± 15; for L/B (liver/body weight ratio): model 3.5 ± 0.27, normal 3.5 ± 0.27
Description: C57/B6 mouse study: 61 C57/B6 mice ♂ aged 6–7 weeks were purchased from Beijing Vital River Laboratory Animal Technology Co., Ltd. Six animals were kept with a chow diet as normal control, and the other 55 animals were fed 60% fat diet (Western diet, D12492, Research diet) as the model group. […] Animals in the normal and model groups were given solvent by oral gavage. All drugs, including solvent, were administered consecutively for 4 weeks and once a day. After sacrifice, blood was collected and serum was isolated for the AST, ALT, TG, TC, LDL-c, HDL-c, and CK tests, and the livers were weighed to calculate the liver weight ratio. The left lobe of the liver of each mouse was collected for hematoxylin-eosin staining (H and E staining) and sirius red staining.
(§1) The liver samples were fixed in 10% formalin and embedded in paraffin using standard methods. The 4 μm paraffin sections were then assessed for liver histology by H and E staining and liver fibrosis by sirius red staining. The stained sections were panoramic scanned with a NanoZoomer Digital Pathology scanner (S210, Hamamatsu, Japan), and then observed with different visual fields at different magnifications, and scored for different liver lobes in the sections. The total NAS score represents the sum of the scores for steatosis (0–3), lobular inflammation (0–3), and ballooning (0–2), and ranges from 0–8 [30]. VIS7.0 software was used to analyze the area of liver fibrosis in the panoramic scanning SR staining sections, and the percentage of liver fibrosis area in the whole section area was calculated.

[1] = Tissue distribution in SD rat; format: in vivo; details: for concentration at 2 h / concentration at 8 h: male, 10 mg/kg oral gavage once
Text: [Worded in the source for another organism; this organism is reported under the same test.] Half of mice for each group (n = 3) were sacrificed 2H and 8H after drug administration, respectively. Blood, heart, and liver were collected at each time point. Blood was processed and detected as mentioned previously. The heart and liver were homogenized and added extractant. The protein of tissue samples was precipitated by vortex oscillation, and the supernatant was collected and determined by LC-MS/MS procedures.

HFD SD rat model = test: HFD SD rat model, biochemical, organ weight ratio, liver lipid and liver pathology; format: in vivo; details: mean ± SD; for Liver TC / Liver TG: HFD SD rat liver; for Liver TC: model 13 ± 2.2, normal 6.0 ± 0.76; for Liver TG: model 102 ± 36, normal 0.75 ± 12
Description: SD rat study: 58 SD rats ♂ aged 5–6 weeks were purchased from Beijing Huafukang Biotechnology Co., Ltd. 9 animals were kept with a food control diet as normal control, and the other 49 animals were fed 40% fat, 1.25% cholesterol and 0.5% sodium cholate (HFD, D12109C, SYSE BIO, Changzhou, China) as a model group. […] Animals in the normal and model groups were given solvent by oral gavage. All drugs, including solvent, were administered consecutively for 4 weeks and once a day. After sacrifice, blood was collected and serum was isolated for the AST, ALT, TG, TC, LDL-c, and HDL-c test, and livers and hearts were weighed to calculate the liver weight ratio and the heart weight ratio, respectively. The right lobe of the liver of each rat was harvested for the TG and TC test (A110-1-1 and A111-1-1, Nanjing Jiancheng Institute of Bioengineering, Nanjing, China) according to the manufacturer's instructions. The left lobe of the liver was collected for hematoxylin-eosin staining (H and E staining) to quantify liver steatosis, inflammation, and ballooning.
as §1

[2] = 3 mg/kg (L) oral once a day 4 weeks
[3] = 10 mg/kg (CS27109-M, MGL-3196) oral once a day 4 weeks
[4] = 30 mg/kg (H) oral once a day 4 weeks
[5] = WD + CCL4 mouse, 4 weeks, MGL3196 10 mg/kg, CS27109 high-dose (30 mg/kg), vs model
[6] = heart, read-out: Heart concentration
[7] = liver, read-out: Liver concentration
[8] = serum, read-out: Serum concentration
[9] = 5 mg/kg (L) oral once a day 4 weeks
[10] = 15 mg/kg (CS27109-M, MGL-3196) oral once a day 4 weeks
[11] = 45 mg/kg (H) oral once a day 4 weeks

PK properties in mouse (comparison of CS27109 and MGL3196) (PK in the mouse; 10 mg/kg oral gavage once): comparative PK properties
AUC in mouse relative to AUC in rat (PK in the mouse; 10 mg/kg oral, mouse higher than rat): 1.5 fold
CK activity (WD + CCL4 mouse model; [2]): 331 ± 386 U/L
CK activity (WD + CCL4 mouse model; [3]): 201 ± 95 U/L
CK activity (WD + CCL4 mouse model; [4]): 280 ± 147 U/L
average of concentration liver/heart ([1]; 10 mg/kg oral, average of 2H and 8H): 26.69
concentration at 2 h [1, 6]: 95.7 ng/g
concentration at 8 h [1, 6]: 309 ng/g
concentration at 2 h [1, 7]: 1670 ng/g
concentration at 8 h [1, 7]: 11100 ng/g
concentration at 2 h [1, 8]: 670 ng/mL
concentration at 8 h [1, 8]: 3620 ng/mL
Structure (SMILES): N#Cc1nn(-c2cc(Br)c(Oc3n[nH]c(=O)c4ccccc34)c(Br)c2)c(=O)[nH]c1=O [CS27109]
LDL-c (WD + CCL4 mouse model; [2]): 0.40 ± 0.10 mmol/L
TG (WD + CCL4 mouse model; [2]): 1.2 ± 0.34 mmol/L
HDL-c (WD + CCL4 mouse model; [2]): 0.85 ± 0.24 mmol/L
TC (WD + CCL4 mouse model; [2]): 2.3 ± 0.40 mmol/L
AST (WD + CCL4 mouse model; [2]): 13447 ± 6633 U/L
ALT (WD + CCL4 mouse model; [2]): 19162 ± 4012 U/L
LDL-c (WD + CCL4 mouse model; [3]): 0.37 ± 0.07 mmol/L
TG (WD + CCL4 mouse model; [3]): 1.2 ± 0.19 mmol/L
HDL-c (WD + CCL4 mouse model; [3]): 0.94 ± 0.25 mmol/L
TC (WD + CCL4 mouse model; [3]): 2.2 ± 0.36 mmol/L
AST (WD + CCL4 mouse model; [3]): 4804 ± 1121 U/L
ALT (WD + CCL4 mouse model; [3]): 10478 ± 2131 U/L
LDL-c (WD + CCL4 mouse model; [4]): 0.39 ± 0.11 mmol/L
TG (WD + CCL4 mouse model; [4]): 1.2 ± 0.18 mmol/L
HDL-c (WD + CCL4 mouse model; [4]): 1.2 ± 0.31 mmol/L
TC (WD + CCL4 mouse model; [4]): 2.4 ± 0.48 mmol/L
AST (WD + CCL4 mouse model; [4]): 3660 ± 1208 U/L
ALT (WD + CCL4 mouse model; [4]): 7832 ± 2422 U/L
liver inflammation score (H and E) (WD + CCL4 mouse model; [5]): notable reduction
liver steatosis score (H and E) (WD + CCL4 mouse model; [5]): notable reduction
liver ballooning score (H and E) (WD + CCL4 mouse model; WD + CCL4 mouse, 4 weeks, only low-dose CS27109 (3 mg/kg), vs model): significantly reduced liver ballooning
area of liver fibrosis (sirius red) (WD + CCL4 mouse model; WD + CCL4 mouse, 4 weeks, three doses of CS27109 (3, 10, 30 mg/kg), MGL3196 10 mg/kg, vs model): prominently reduced the area of the fibrosis
L/B (liver/body weight ratio) (WD + CCL4 mouse model; WD + CCL4 mouse, 3 mg/kg (L) oral once a day 4 weeks): 3.3 ± 0.40%
L/B (liver/body weight ratio) (WD + CCL4 mouse model; WD + CCL4 mouse, 10 mg/kg (CS27109-M, MGL-3196) oral once a day 4 weeks): 3.2 ± 0.68%
L/B (liver/body weight ratio) (WD + CCL4 mouse model; WD + CCL4 mouse, 30 mg/kg (H) oral once a day 4 weeks): 3.2 ± 0.79%
Liver TC (HFD SD rat model; [9]): 11 ± 1.1 µmol/g
Liver TG (HFD SD rat model; [9]): 71 ± 28 µmol/g
Liver TC (HFD SD rat model; [10]): 10 ± 0.74 µmol/g
Liver TG (HFD SD rat model; [10]): 54 ± 24 µmol/g
Liver TC (HFD SD rat model; [11]): 10 ± 2.2 µmol/g
Liver TG (HFD SD rat model; [11]): 69 ± 21 µmol/g
TG (HFD SD rat model; HFD SD rat serum, 5 mg/kg (L) oral once a day 4 weeks, model 0.82 ± 0.73, normal 0.53 ± 0.34): 0.19 ± 0.08 mmol/L
